Key:
Caco-2 cells [1] = assay: Aβ uptake assay with FITC labeled Aβ 1–40; assay type: in vitro ADME, human
Experimental: FITC labeled Aβ 1–40 was prepared according to the manufacturer’s protocol (rPeptide, Bogart, GA, USA). 500nM of the peptide was added to confluent cells in serum free DMEM/F12 for 4 hours in the absence or presence of 10ng/mL LPS. The media was then removed and extracellular peptide signal was quenched by rinsing cells with 0.25% trypan blue dissolved in PBS. The trypan blue incubation served to quench FITC-Aβ signal from any peptide that was associated with the extracellular plasma membrane surface or with the tissue culture plastic of the wells. Intracellular Aβ signal was then quantified using a fluorescent plate reader (480 nm excitation and 520 nm emission).
(§1) Fig 2 Caco-2 cells secreted and took up Aβ. […] The cells were rinsed with trypan blue to quench extracellular signal from FITC-Aβ on the cell surface or surface of the tissue culture dish and intracellular Aβ fluorescence was measured with a fluorescent plate reader (480 nm excitation and 520 nm emission) (B).

Caco-2 cells [2] = assay: Aβ 1–40 and Aβ 1–42 ELISA of media from stimulated Caco-2 cells (Aβ secretion); assay type: cell-based, human; settings: overnight stimulation in serum free DMEM/F12; 10ng/mL LPS or 1μg/mL 22C11; 3 experiments in a replicate of 8
Experimental: Caco-2 cells were purchased from ATCC (Manassas, VA, USA). These are an epithelial-like cell line derived from a colorectal adenocarcinoma from a person. Caco-2 cells were maintained in DMEM/F12 (Gibco, Life Technologies, Grand Island, NY, USA) supplemented with 10% heat inactivated fetal bovine serum (FBS), 5% donor horse serum (Serum Source International, Charlotte, NC, USA) and antibiotics (0.05mg penicillin/0.05mg streptomycin/0.01mg neomycin/mL) (Sigma-Aldrich, St. Louis, MO, USA). Caco-2 cells were plated and allowed to grow to confluency before removing supplemented media and replacing with serum free DMEM/F12 with or without treatments. Following stimulation, Caco-2 cells were used for ELISA, Aβ uptake, cholesterol assays, immunoprecipitation, and western blot analysis.
The cells were lysed using ice cold RIPA buffer with protease inhibitors and 50U/mL DNAse1. […] The Bradford method was used to quantify protein concentrations for normalization of Aβ in the media and lysates were used for western blotting.
as §1

Caco-2 cells [3] = assay: Cytokine ELISAs (IL-8, MCP-1, MDC, IL-6, TNFα) of media from stimulated Caco-2 cells; assay type: cell-based, human; settings: ELISA of media, normalized to protein, 6 samples
Caco-2 cells [4] = assay: Cholesterol Uptake Cell-Based Assay (NBD Cholesterol); set-up: species or system human; settings: 40 min; for Cholesterol uptake: 8 samples
Experimental: Cholesterol was measured following the protocol provided in the Cholesterol Uptake Cell-Based Assay Kit from Cayman Chemical Company (Ann Arbor, Michigan USA). […] At the end of treatment, the plates were aspirated and cell-based assay buffer was added to each well and NBD Cholesterol uptake was quantified using a fluorescent plate reader (480 nm excitation and 520 nm emission).
Fig 4 Aβ and 22C11 agonist decreased cholesterol uptake whereas the sAPP-derived peptide and SM-ϕ stimulated increased cholesterol uptake by Caco-2 cells. […] Representative data from 3 independent experiments are shown.

HepG2 hepatocyte line = system: HepG2 hepatocyte line; set-up: method as in PMID 8898096; settings: Aβ 1–40 treatment of human HepG2 hepatocyte line; cited from earlier work
Caco-2 cells [5] = assay: Western blotting of protein levels in stimulated Caco-2 cells; assay type: cell-based, human; settings: western blot, 3 samples
Experimental: Following stimulation, cells were lysed using ice cold radioimmunoprecipitation assay (RIPA) buffer (20mM Tris, pH 7.4, 150mM NaCl, 1mM Na3VO4, 10mM NaF, 1mM EDTA, 1mM EGTA, 0.2mM phenylmethylsulfonyl fluoride, 1% Triton, 0.1% SDS, and 0.5% deoxycholate) with protease inhibitors (AEBSF 1mM, Aprotinin 0.8μM, Leupeptin 21μM, Bestatin 36μM, Pepstatin A 15μM, E-64 14μM) and 50U/mL DNAse1(Amresco Inc, Solon, OH, USA). To remove insoluble material cell lysates were sonicated and centrifuged (14,000 rpm, 4°C, 10 min). The Bradford method was used to quantify protein concentrations. Proteins were resolved by 7 or 10% sodium dodecyl sulfate-polyacrylamide gel electrophoresis (SDS-PAGE) and transferred to polyvinylidene difluoride membranes (PVDF) for western blotting using anti-APP (Y188), CD36, occludin, LFABP, FATP4, pSrc, cSrc, and GAPDH (loading control) antibodies. Antibody binding was detected with enhanced chemiluminescence (GE Healthcare, Piscataway, NJ). In some instances, blots were stripped in […], 10 min, 25°C, for reprobing. Western blots were quantified using Adobe Photoshop software. Optical densities of bands were normalized against their respective loading controls and averaged (+/-SD).
Fig 5 Aβ, APP, and CD36 stimulations selectively altered protein levels in Caco-2 cells.

[6] = set-up: method as in PMID 12897403; settings: in vivo, iv; cited from earlier work

**Q.** For “fluorescently labeled Aβ 1–40: FITC labeled Aβ 1–40 prepared according to the manufacturer's protocol (rPeptide)”, which “Uptake of fluorescently labeled Aβ 1–40 into cells (intracellular fluorescence)” value (Caco-2 cells [1]; 500nM FITC Aβ 1–40, 4 hr, confluent Caco-2, serum free DMEM/F12, extracellular signal quenched with 0.25% trypan blue, fluorescent plate reader 480/520 nm, 3 experiments in a replicate of 8) is on record?
**A.** could take up Aβ peptide

**Q.** For lipopolysaccharide [LPS], which “Effect on uptake of FITC Aβ 1–40 by Caco-2 cells” value (Caco-2 cells [1]; 10ng/mL LPS present with 500nM FITC Aβ 1–40, 4 hr) is on record?
**A.** not affected

**Q.** What about the “Aβ secretion (Aβ 1–40 and Aβ 1–42 ELISA)” value (Caco-2 cells [2]) of the same substance?
**A.** higher concentrations of Aβ 1–40 compared to Aβ 1–42 released

**Q.** What about the IL-8 cytokine secretion (Caco-2 cells [3]; 10ng/mL LPS, 24h) of the same substance?
**A.** increased

**Q.** And the TNFα cytokine secretion (Caco-2 cells [3]; 10ng/mL LPS, 24h)?
**A.** increased

**Q.** And the Cholesterol uptake (Caco-2 cells [4]; 10ng/mL LPS, 20μg/ml NBD Cholesterol in glucose free HBSS)?
**A.** increased

**Q.** With “Aβ 1–40: amyloid β 1–40 peptide purchased from rPeptide” as the substance, how does the “steady state levels of intracellular cholesterol, cholesterol esters, phospholipids, and triacylglycerol” value (HepG2 hepatocyte line) read?
**A.** attenuate

**Q.** What about the “protein levels of other proteins examined (besides occludin)” value (Caco-2 cells [5]; 1μM Aβ 1–40 overnight, compared to control untreated cells) of the same substance?
**A.** no effect

**Q.** What about the occludin protein levels (Caco-2 cells [5]; overnight stimulation, 1μg/mL antibody or 1μM Aβ 1–40) of the same substance?
**A.** decreased

**Q.** And the IL-6 cytokine secretion (Caco-2 cells [3]; 1μM Aβ 1–40, 24h)?
**A.** increased

**Q.** And the Cholesterol uptake (Caco-2 cells [4]; 100nM, 1μM and 5μM Aβ 1–40 (all three concentrations), 20μg/ml NBD Cholesterol)?
**A.** decreased

**Q.** And the “Cholesterol uptake, concentration comparison” value (Caco-2 cells [4]; 1μM Aβ 1–40 compared with 100nM and 5μM)?
**A.** most dramatic effect

**Q.** Which transport into organs [6] does the source give for “radiolabeled Aβ 1–40: radiolabeled Aβ 1–40 associated with chylomicron-like particles, literature study” here?
**A.** can be transported into diverse organs including adipose tissue and brain

Source: publication PMC4351204, “Amyloid Precursor Protein Mediated Changes in Intestinal Epithelial Phenotype In Vitro” (PLoS ONE, 2015)
